What was measured:
[1] = tested on: BrdU and Ki67 positive cells; experiment: Immunohistochemistry of cell proliferation (BrdU, Ki67) after MI, PTH treatment; format: in vivo, C57BL/6 mice
Procedure: (§1) After occlusion of the LAD, mice were divided into the following groups 1) subcutaneous administration of saline daily for 5 days, sacrificed at day 6 (n=10) and day 30 (n=15); 2) administration of rat PTH (1-34) daily for 5 and 14 consecutive days (80 μg/kg/d s.c., Bachem), sacrificed at day 6 (n=9) and day 30 (n=15); 3) sham operated animals sacrificed at day 30 (n=5), and not operated control animals receiving saline (n=6) sacrificed at day 6 and at day 30. All animals received BrdU ([…]) for 5 consecutive days. BrdU and cytokine treatment were started 12-24 hours after LAD occlusion.
At day 6 (n=10) and day 30 (n=10), hearts were excised. After fixation in 4% phosphate buffered formalin the hearts were cut transversally into 2 mm thick slices and embedded in paraffin. 4 μm thick sections were cut and mounted on positively charged glass slides. Standard histological procedures (hematoxilin/eosin and Masson trichrome) and immunostaining (see below) were performed.
For immunostaining mounted tissue sections were deparaffinized by rinsing 3×5 minutes in xylene followed by 2×5 minutes 100%, 2×5 minutes 96%, and 2×5 minutes 70% ethanol rinses. Endogenous peroxidases were quenched in 7.5% H2O2 in distilled water for 10 minutes. After rinsing in distilled water for 10 minutes and 2×5 minutes in TRIS-Buffer, pH 7.5, the slides were incubated at room temperature for 60 minutes with following primary antibodies: CD45 (rat anti-mouse, BD Pharmingen), ICAM-1 (goat anti-mouse, R&D), CD34 (rat anti-mouse, Linaris), Ki67 (goat anti-mouse, Santa Cruz) or BrdU (mouse monoclonal anti-BrdU, BD Pharmingen). Pre-treatment was performed for 30 minutes (microwave 750 W) using TRS 6 (Dako) for CD45, Glykol (biologo) for CD34, Retrievagen A (BD Pharmingen) for BrdU, and citrate buffer (10 mM, pH 6.0) for Ki67.
For detection of the immunoreaction Avidin-Biotinylated enzyme Comlex-Rat IgG, Avidin-Biotinylated enzyme Comlex-Goat IgG (both from Vector) or rabbit anti-goat IgG (DAKO) were used. Aminoethylcarbazol was used as chromogen (incubation 10 minutes). Thereafter, the slides were rinsed in running water and counterstained with hematoxilin Gill's Formula (Vector). Cover slides were mounted with Kaiser's glycerol gelatine. Doublestaining was performed for CD31 and Ki67 using an Avidin-Biotinylated enzyme Comlex-Goat IgG detection system and diaminobenzidine as chromogen and the APAAP-Rat system and chromogen red (all from Dako), respectively.
Quantitative assessments: a) granulation tissue: the number of BrdU and Ki76 positive nuclei were related to the total number of nuclei quantified in the granulation tissue. b) arterioles: only arterioles with high proliferative activity were enclosed.

myocardial infarction = experiment: Survival after myocardial infarction (LAD occlusion), PTH treatment; format: in vivo, C57BL/6 mice; details: 4 weeks after myocardial infarction, PTH 80 μg/kg/d s.c.
Procedure: Myocardial infarction was induced in male C57BL/6 mice 8-12 weeks of age by surgical occlusion of the left anterior descending artery (LAD) through a left anterolateral approach. Mice were anesthetized by intraperitoneal injection of a mixture of 100 mg/kg ketamine (Sigma Chemical Co., St. Louis, Mo.) and 5 mg/kg Xylazine (Sigma), intubated and artificially ventilated by a mouse ventilator (HUGO SACHS, March, Germany) with 200 strokes/min and 200 μl/stroke. Animal care and all experimental procedures were performed in strict accordance to the German and National Institutes of Health animal legislation guidelines and were approved by the local animal care and use committees.
as §1, with “BrdU and cytokine treatment were started 12-24 hours after LAD occlusion.” left out
Results were expressed as mean±S.E.M. For statistical analyses the unpaired Student's t-test was used. Mortality was analyzed by the Kaplan-Meier-method. […]

rat PTH (1-34)
BrdU positive cells within the granulation tissue ([1]; 6 days after MI): 72.1±2.4%
Ki67 and BrdU positive cells within the remote area ([1]; 6 days after MI): less than 1%
Ki67 positive cells within the granulation tissue ([1]; 6 days after MI): 34.8±4.8%
Ki67 positive endothelial cells associated with CD31 positive arterioles ([1]; compared to saline treated animals): high numbers
BrdU positive cells in the periinfarct region ([1]; day 30): 99.1±25.0 /mm^2
survival rate (myocardial infarction): 60%
survival rate (myocardial infarction; listed as rPTH (1-34)): 60.0%
